# Assay results published in patent US20250197377A1, “NOVEL PHARMACEUTICAL SALTS AND POLYMORPHIC FORMS OF AN ERBB AND BTK INHIBITOR” (DIZAL (JIANGSU) PHARMACEUTICAL CO., LTD., priority 2021, published 2025).
# “And” between values parts separate entries of the source, which are not always exact repeats. Equal values may be shown once.
# Key:
# HER2 A775_G776insYVMA = target: T1, HER2 A775_G776insYVMA (Homo sapiens, UniProt P04626, INS775YVMA); test: In vitro cell based assay, PD IC50, 3T3_YVMA
# T1 construct: expressed in transfected cells; host or cells: 3T3 (3T3_YVMA)
# EGFR 19Del = target: T2, EGFR 19Del (Homo sapiens, UniProt P00533, DEL746-750); test: In vitro cell based assay, PD IC50, PC-9
# T2 construct: Form A and B in vitro cell based assay; endogenous in cells; host or cells: PC-9
# T2 sequence (P00533 with tags, fused parts or gaps DEL746-750): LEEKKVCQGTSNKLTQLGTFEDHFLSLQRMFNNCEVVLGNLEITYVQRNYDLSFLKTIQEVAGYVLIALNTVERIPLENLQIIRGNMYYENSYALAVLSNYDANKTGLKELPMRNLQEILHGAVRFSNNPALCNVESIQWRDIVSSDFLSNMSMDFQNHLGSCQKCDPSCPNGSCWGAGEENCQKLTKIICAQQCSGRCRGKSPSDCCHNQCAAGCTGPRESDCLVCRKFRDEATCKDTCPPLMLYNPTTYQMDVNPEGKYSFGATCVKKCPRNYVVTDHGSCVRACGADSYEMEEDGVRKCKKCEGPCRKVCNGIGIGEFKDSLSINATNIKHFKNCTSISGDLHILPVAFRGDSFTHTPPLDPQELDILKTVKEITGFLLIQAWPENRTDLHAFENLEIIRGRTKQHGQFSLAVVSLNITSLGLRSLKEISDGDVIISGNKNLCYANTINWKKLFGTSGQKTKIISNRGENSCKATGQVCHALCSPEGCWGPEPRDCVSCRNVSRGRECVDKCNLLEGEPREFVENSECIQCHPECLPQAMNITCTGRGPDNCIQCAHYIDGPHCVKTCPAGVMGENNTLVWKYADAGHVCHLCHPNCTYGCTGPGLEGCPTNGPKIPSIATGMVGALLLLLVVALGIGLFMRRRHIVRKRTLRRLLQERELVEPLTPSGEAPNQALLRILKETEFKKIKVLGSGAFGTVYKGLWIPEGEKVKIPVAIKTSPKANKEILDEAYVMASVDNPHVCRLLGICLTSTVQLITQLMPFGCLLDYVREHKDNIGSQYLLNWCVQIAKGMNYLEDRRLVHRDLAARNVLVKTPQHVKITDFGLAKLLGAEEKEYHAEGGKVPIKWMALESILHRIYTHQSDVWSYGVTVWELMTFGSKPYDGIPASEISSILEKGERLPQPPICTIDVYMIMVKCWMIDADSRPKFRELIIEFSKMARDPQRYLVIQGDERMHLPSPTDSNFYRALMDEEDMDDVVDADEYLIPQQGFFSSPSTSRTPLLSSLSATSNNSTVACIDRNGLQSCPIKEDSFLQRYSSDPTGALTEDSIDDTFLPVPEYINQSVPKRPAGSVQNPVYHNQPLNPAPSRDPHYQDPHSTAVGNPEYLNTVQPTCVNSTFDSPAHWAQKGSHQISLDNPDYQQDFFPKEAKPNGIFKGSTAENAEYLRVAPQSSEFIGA
# 3T3_YVMA = test: In vitro cell based assay, anti-proliferation GI50, 3T3_YVMA; settings: HER2 A775_G776insYVMA
# [1] = Milling study of Form B (grinding and jet milling); assay type: physicochemical
# Method: Grinding and jet milling were carried out. About 10 mg Form B was added into mortar and grinded by pestle for 1 min and 2 min. Jet milling of Form B in 500 mg scale was performed. Samples before and after grinding and milling were analyzed by XRPD. • Instrument: Jet mill (Equipment number: PPD-OAJ-1) • Feeding speed: Manual • Feeding pressure: 0.3˜0.6 MPa • Milling One Pressure: 0.4˜0.8 MPa • Milling Two Pressure: 0.4˜0.8 MPa
# Grinding and jet milling were carried out to test physical stability of Form B in the milling process. As shown in XRPD results of obtained solids after grinding (FIG. 25), jet milling (FIG. 24), and DSC profile after jet milling (FIG. 26), the crystallinity decreased after grinding, but the crystal form of Form B was unchanged after milling and grinding.
# [2] = Solubility in organic solvents and water; assay type: physicochemical; settings: r.t.
# Ba/F3_NPH = test: In vitro cell based assay, anti-proliferation GI50, Ba/F3_NPH; settings: EGFR H773_V774insNPH
# [3] = Stability in storage for Form B (XRPD, DSC); assay type: physicochemical; settings: stored at 2-8° C. for at least 20 d
# EGFR H773_V774insNPH = target: T3, EGFR H773_V774insNPH (Homo sapiens, UniProt P00533, INS773NPH); test: In vitro cell based assay, PD IC50, Ba/F3_NPH
# T3 construct: expressed in transfected cells; host or cells: Ba/F3 (Ba/F3_NPH)
# T3 sequence (P00533 with tags, fused parts or gaps INS773NPH): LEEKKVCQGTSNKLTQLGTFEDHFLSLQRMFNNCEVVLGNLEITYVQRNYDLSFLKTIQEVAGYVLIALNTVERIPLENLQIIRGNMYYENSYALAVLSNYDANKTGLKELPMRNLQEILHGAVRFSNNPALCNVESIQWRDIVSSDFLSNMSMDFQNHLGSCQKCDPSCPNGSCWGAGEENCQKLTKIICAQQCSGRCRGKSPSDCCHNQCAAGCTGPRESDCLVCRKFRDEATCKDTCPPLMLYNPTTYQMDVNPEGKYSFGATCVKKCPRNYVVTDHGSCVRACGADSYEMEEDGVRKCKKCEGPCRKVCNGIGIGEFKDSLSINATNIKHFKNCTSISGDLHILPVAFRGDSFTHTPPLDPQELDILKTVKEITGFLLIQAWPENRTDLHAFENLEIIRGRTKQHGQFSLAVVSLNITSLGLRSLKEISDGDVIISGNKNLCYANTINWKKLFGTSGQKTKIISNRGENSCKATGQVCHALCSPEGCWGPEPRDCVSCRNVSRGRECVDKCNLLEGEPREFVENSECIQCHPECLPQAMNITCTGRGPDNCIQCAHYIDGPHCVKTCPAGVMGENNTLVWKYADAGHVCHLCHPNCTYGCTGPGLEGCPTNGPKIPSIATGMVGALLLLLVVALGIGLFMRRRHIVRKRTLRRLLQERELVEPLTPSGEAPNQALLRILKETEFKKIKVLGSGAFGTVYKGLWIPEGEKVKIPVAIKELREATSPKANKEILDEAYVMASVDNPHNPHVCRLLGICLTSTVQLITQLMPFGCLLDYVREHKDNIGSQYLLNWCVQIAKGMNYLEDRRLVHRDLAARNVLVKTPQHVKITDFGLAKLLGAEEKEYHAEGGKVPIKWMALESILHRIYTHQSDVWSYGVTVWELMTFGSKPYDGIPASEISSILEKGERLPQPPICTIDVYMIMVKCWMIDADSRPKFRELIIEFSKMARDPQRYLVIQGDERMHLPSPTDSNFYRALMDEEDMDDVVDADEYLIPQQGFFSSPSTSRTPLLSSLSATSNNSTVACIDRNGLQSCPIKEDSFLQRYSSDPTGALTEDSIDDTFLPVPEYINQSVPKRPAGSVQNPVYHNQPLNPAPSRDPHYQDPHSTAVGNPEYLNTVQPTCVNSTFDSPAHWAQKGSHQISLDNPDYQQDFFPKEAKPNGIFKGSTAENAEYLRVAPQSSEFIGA
# EGFR L858R/T790M = target: T4, EGFR L858R/T790M (Homo sapiens, UniProt P00533, L858R/T790M); test: In vitro cell based assay, PD IC50, NCI-H1975
# T4 construct: Form A and B in vitro cell based assay; endogenous in cells; host or cells: NCI-H1975
# T4 sequence (P00533 25-1210 T790M/L858R): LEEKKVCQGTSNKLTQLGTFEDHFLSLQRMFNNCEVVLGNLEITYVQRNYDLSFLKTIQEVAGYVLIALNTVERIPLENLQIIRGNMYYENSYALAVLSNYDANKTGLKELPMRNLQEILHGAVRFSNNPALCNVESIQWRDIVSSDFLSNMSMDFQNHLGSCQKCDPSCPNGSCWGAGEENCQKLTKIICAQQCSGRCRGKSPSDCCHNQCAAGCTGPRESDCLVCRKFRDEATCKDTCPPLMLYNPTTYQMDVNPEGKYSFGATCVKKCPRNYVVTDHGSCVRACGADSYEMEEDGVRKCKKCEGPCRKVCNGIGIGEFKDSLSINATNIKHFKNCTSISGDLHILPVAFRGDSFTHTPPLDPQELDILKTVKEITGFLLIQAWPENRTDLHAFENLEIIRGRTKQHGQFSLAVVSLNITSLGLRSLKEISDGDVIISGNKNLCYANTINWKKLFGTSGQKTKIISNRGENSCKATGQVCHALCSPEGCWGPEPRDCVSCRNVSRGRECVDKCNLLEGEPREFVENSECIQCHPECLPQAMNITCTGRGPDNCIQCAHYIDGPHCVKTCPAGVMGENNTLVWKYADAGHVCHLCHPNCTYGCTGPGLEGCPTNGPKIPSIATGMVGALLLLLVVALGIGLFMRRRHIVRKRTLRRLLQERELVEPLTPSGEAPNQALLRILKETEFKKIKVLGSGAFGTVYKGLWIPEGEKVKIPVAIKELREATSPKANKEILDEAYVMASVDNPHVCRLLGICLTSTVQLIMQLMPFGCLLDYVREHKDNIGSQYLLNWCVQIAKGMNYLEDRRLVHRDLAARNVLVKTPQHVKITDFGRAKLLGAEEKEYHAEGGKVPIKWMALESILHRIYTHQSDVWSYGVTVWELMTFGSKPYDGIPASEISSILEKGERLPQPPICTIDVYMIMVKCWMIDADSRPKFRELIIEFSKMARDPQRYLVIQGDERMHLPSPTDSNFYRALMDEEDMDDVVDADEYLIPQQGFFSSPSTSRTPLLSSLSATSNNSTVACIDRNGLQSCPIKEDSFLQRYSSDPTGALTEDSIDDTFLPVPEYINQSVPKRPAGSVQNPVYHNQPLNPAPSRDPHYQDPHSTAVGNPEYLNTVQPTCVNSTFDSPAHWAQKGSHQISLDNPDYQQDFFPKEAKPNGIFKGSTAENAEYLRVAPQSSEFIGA
# [4] = PK study of Form A and Form B in Rat; assay type: in vivo
# A431 = test: In vitro cell based assay, anti-proliferation GI50, A431; settings: EGFR Wildtype
# [5] = Water activity study of Form A and Form B (slurry, XRPD); assay type: physicochemical; settings: 24~27° C. (before dry)
# Method: To study the effects of water on the stability of Form A and Form B, slurry experiments in the systems with different water activity were carried out. Form A or Form B was suspended separately in different water activity systems (Table 4). […] Residual solids were filtered and then dried in the vacuum oven at 45° C. for 8-24 hours. Dry solids were characterized by XRPD.
# [6] = Solubility in bio-relevant media; assay type: physicochemical; settings: for pH value at 24 h: solubility sample at 24 h
# [7] = Dynamic moisture sorption analysis (DVS); assay type: physicochemical
# Method: DVS was determined using DVS Advantage-1 or Intrinsic (SMS, UK). The sample was tested at a targeted RH of 10 to 90% full cycle in step mode. The analysis was performed in 10% RH increments. Equilibrium:60 min RH (%) measurement points: First cycle: 0, 10, 20, 30, 40, 50, 60, 70, 80, 90. Second cycle: 90, 80, 70, 60, 50, 40, 30, 20, 10, 0.
# [8] = Form A and Form B inter-conversion study (competitive slurry, XRPD); assay type: physicochemical
# Method: Competitive slurry experiments were conducted to evaluate the relative stability of Form A and Form B. Inter-conversion study was performed at room temperature and 50° C. using single and binary solvents listed in the Table 1 below. About 80 mg (100 mg for 50° C.) of Form A and Form B (1:1, w/w) was weighed into sample vials (8 mL) and then 3 mL (2 mL for 50° C.) of solvents were added to each vial. The obtained suspensions were kept stirring for 7 days at room temperature and 50° C., then filtered at specified time. The wet and dried solids were analyzed by XRPD (dried in vacuum oven at 45° C.).
# Form B was dominant in tested solvent systems with water activity below 0.15 at room temperature (24˜27° C.). […] Pure Form A and Form B were stable during drying process (50° C., vacuum) for at least 2 days.
# [9] = PK study of Form A and Form B in Dog; assay type: in vivo; settings: 10 mg/kg
# PC-9 = test: In vitro cell based assay, anti-proliferation GI50, PC-9; settings: EGFR 19Del
# EGFR Wildtype = target: T5, EGFR Wildtype (Homo sapiens, UniProt P00533); test: In vitro cell based assay, PD IC50, A431
# T5 construct: Form A and B in vitro cell based assay; endogenous in cells; host or cells: A431
# T5 sequence (P00533 25-1210): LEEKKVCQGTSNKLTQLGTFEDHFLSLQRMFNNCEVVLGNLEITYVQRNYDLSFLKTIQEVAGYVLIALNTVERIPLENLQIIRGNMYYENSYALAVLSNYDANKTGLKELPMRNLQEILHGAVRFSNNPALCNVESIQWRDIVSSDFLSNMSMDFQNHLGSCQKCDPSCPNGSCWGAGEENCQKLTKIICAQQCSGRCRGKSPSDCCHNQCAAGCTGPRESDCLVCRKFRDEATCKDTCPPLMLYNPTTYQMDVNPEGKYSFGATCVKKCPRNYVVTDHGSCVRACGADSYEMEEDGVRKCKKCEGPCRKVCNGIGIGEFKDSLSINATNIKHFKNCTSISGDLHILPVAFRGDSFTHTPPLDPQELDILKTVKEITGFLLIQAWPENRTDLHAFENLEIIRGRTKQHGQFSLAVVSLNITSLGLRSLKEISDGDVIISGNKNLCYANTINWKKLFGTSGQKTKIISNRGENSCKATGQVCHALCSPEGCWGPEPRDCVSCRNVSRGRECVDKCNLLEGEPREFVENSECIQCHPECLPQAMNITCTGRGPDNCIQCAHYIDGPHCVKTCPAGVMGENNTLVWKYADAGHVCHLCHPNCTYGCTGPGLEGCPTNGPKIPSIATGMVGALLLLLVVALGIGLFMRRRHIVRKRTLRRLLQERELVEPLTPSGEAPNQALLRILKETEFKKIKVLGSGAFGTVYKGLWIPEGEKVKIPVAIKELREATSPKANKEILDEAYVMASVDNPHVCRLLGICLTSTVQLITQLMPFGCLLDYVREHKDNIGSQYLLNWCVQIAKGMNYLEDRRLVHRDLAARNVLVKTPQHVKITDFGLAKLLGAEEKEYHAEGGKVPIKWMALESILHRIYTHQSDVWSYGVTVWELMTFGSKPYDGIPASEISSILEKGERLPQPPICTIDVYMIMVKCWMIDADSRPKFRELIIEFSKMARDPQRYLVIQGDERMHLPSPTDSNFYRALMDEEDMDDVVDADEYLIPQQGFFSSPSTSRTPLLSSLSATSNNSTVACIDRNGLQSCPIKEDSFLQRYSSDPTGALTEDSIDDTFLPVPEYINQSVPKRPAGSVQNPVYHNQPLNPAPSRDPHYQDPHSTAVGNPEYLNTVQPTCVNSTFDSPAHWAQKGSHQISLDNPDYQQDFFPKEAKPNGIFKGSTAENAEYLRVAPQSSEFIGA
# NCI-H1975 = test: In vitro cell based assay, anti-proliferation GI50, NCI-H1975; settings: EGFR L858R/T790M
compound,measurement,setting,value
"C=CC(=O)Nc1cc(Nc2nccc(Nc3cc(Cl)c(F)cc3C(C)(C)O)n2)c(OC)cc1N1CC[C@@H](N(C)C)C1 [Form B, (R)-N-(5-((4-((5-chloro-4-fluoro-2-(2-hydroxypropan-2-yl)phenyl)amino)pyrimidin-2-yl)amino)-2-(3-(dimethylamino)pyrrolidin-1-yl)-4-methoxyphenyl)acrylamide]",IC50,HER2 A775_G776insYVMA,3.26 nM
same,IC50,EGFR 19Del,2.29 nM
same,GI50,3T3_YVMA,44.5 nM
same,Crystallinity after grinding (XRPD),[1]; grinding,decreased
same,"Crystal form after milling and grinding (XRPD, DSC)","[1]; grinding 1 min and 2 min, jet milling",unchanged
same,Solubility,[2]; Acetone,S < 5.88 mg/ml
same,Solubility,[2]; Acetonitrile,S < 0.97 mg/ml
same,Solubility,[2]; Ethyl acetate,S < 1.06 mg/ml
same,Solubility,[2]; Isopropanol,S ~ 4.677 mg/ml
same,Solubility,[2]; MTBE,S < 1.57 mg/ml
same,Solubility,[2]; MeOH,24.00 < S mg/ml
same,Solubility,[2]; THF,12.70 < S mg/ml
same,Solubility,[2]; water,S < 2.73 mg/ml
same,GI50,Ba/F3_NPH,66.3 nM
same,"Form change after storage (XRPD, DSC)",[3],no form change observed
same,IC50,EGFR H773_V774insNPH,35.2 nM
same,IC50,EGFR L858R/T790M,2.07 nM
same,Mean AUC0~48,[4]; 25 mg/kg,2678 ng·h/mL
same,Mean Cmax,[4]; 25 mg/kg,299 ng/mL
same,Mean t1/2,[4]; 25 mg/kg,4.1 h
same,Median Tmax,[4]; 25 mg/kg,8.0 h
same,Mean AUC0~48,[4]; 75 mg/kg,8433 ng·h/mL
same,Mean Cmax,[4]; 75 mg/kg,672 ng/mL
same,Mean t1/2,[4]; 75 mg/kg,5.8 h
same,Median Tmax,[4]; 75 mg/kg,4.0 h
same,GI50,A431,45.9 nM
same,XRPD results of slurry in different water activity solvent,"[5]; 0% water/acetone, water activity 0, 1 d",Form B
same,XRPD results of slurry in different water activity solvent,"[5]; 0% water/acetone, water activity 0, 3 d",Form B
same,XRPD results of slurry in different water activity solvent,"[5]; 0% water/acetone, water activity 0, 7 d",Form B
same,XRPD results of slurry in different water activity solvent,"[5]; 3% water/acetone, water activity 0.312, 3 d",Form B
same,XRPD results of slurry in different water activity solvent,"[5]; 3% water/acetone, water activity 0.312, 7 d",Form B
same,XRPD results of slurry in different water activity solvent,"[5]; 30% water/acetone, water activity 0.747, 1 d",Form B
same,XRPD results of slurry in different water activity solvent,"[5]; 30% water/acetone, water activity 0.747, 3 d",Form B
same,XRPD results of slurry in different water activity solvent,"[5]; 30% water/acetone, water activity 0.747, 7 d",Form B
same,XRPD results of slurry in different water activity solvent,"[5]; water, 7 d",Form B
same,solubility at 0.5 h,[6]; FaSSIF,150 µg/mL
same,solubility at 2 h,"[6]; FaSSIF, 2 h",160 µg/mL
same,solubility at 24 h,"[6]; FaSSIF, 24 h",240 µg/mL
same,pH value at 24 h,[6]; FaSSIF,6.43
same,solubility at 0.5 h,[6]; FeSSIF,3180 µg/mL
same,Solubility,"[6]; FeSSIF, 2 h",2290 µg/mL
same,solubility at 24 h,"[6]; FeSSIF, 24 h",11200 µg/mL
same,pH value at 24 h,[6]; FeSSIF,5.50
same,solubility at 0.5 h,"[6]; SGF, simulated gastric fluid",23500 µg/mL
same,solubility at 2 h,"[6]; SGF, simulated gastric fluid, 2 h",24200 µg/mL
same,solubility at 24 h,"[6]; SGF, simulated gastric fluid, 24 h",25800 µg/mL
same,pH value at 24 h,[6]; SGF,5.15
same,solubility at 0.5 h,"[6]; SIF, fassgf or other biorelevant",18 µg/mL
same,solubility at 2 h,"[6]; SIF, fassgf or other biorelevant, 2 h",25 µg/mL
same,Solubility,"[6]; SIF, 24 h",520 µg/mL
same,pH value at 24 h,[6]; SIF,6.67
same,"DVS (ΔW %, 80% RH)",[7],0.04%
same,Stability of pure form during drying process,"[8]; 50° C., vacuum, at least 2 days",stable
same,Relative stability of Form A and Form B in competitive slurry,"[8]; 50° C., all the tested solvent systems except pure water",more stable than Form A
same,Relative stability of Form A and Form B in competitive slurry,"[8]; tested solvent systems with water activity below 0.15, room temperature (24~27° C.)",dominant
same,AUC0-24 h,[9]; Female (individual animals),3.14 hr*μM/(mg/kg) and 3.75 hr*μM/(mg/kg)
same,AUC0-24 h,[9]; Male (individual animals),2.88 hr*μM/(mg/kg) and 5.29 hr*μM/(mg/kg)
same,GI50,PC-9,4.23 nM
same,IC50,EGFR Wildtype,54.1 nM
same,GI50,NCI-H1975,1.45 nM
